Data: ChEMBL document CHEMBL5724914, “Linking interpersonal differences in gut microbiota composition and drug biotransformation activity” (2024)

What was measured:
[1] = human gut metagenome, 24 h, 2 µM
[2] = (§1) The drug is tested on Z-029 corresponding to rat gut metagenome with ENA study accession number: PRJEB37062 and ENA sample accession number: ERS12561828 for biotransformation under anaerobic condition. The drug concentrations were measured over 9 timepoints collected between 0 and 24 hours of incubation by liquid-chromatography-coupled mass spectrometry (LC–MS); conditions: 2 µM
[3] = as §1, with “on Z-022” for “on Z-029”, “to mouse” for “to rat”, “number: ERS12561821” for “number: ERS12561828”; conditions: 2 µM
[4] = human gut metagenome, 24 h, 2 µM; remark: listed apart in the source
[5] = as §1, with “on Z-009” for “on Z-029”, “to pig” for “to rat”, “number: ERS12561809” for “number: ERS12561828”; conditions: 2 µM
[6] = human gut metagenome, 24 h, 2 µM; remark: listed apart in the source
[7] = as §1, with “Z-026” for “Z-029”, “to” for “to rat gut”, “ERS12561825” for “ERS12561828”; conditions: 2 µM
[8] = as §1, with “on WLS-090” for “on Z-029”, “to human” for “to rat”, “number: ERS12561753” for “number: ERS12561828”; conditions: 2 µM
[9] = as §1, with “on WLS-370” for “on Z-029”, “to human” for “to rat”, “number: ERS12561793” for “number: ERS12561828”; conditions: 2 µM
[10] = human gut metagenome, 24 h, 2 µM; remark: listed apart in the source
[11] = as §1, with “on WLS-086” for “on Z-029”, “to human” for “to rat”, “number: ERS12561752” for “number: ERS12561828”; conditions: 2 µM
[12] = human gut metagenome, 24 h, 2 µM; remark: listed apart in the source
[13] = human gut metagenome, 24 h, 2 µM; remark: listed apart in the source
[14] = as §1, with “Z-004” for “Z-029”, “to” for “to rat gut”, “ERS12561804” for “ERS12561828”; conditions: 2 µM
[15] = as §1, with “on Z-024” for “on Z-029”, “to pig” for “to rat”, “number: ERS12561823” for “number: ERS12561828”; conditions: 2 µM
[16] = as §1, with “on Z-001” for “on Z-029”, “to mouse” for “to rat”, “number: ERS12561801” for “number: ERS12561828”; conditions: 2 µM
[17] = human gut metagenome, 24 h, 2 µM; remark: listed apart in the source
[18] = human gut metagenome, 24 h, 2 µM; remark: listed apart in the source
[19] = as §1, with “on WLS-027” for “on Z-029”, “to human” for “to rat”, “number: ERS12561744” for “number: ERS12561828”; conditions: 2 µM
[20] = human gut metagenome, 24 h, 2 µM; remark: listed apart in the source
Note: call rule not given here.

Row | SMILES | Bacterial Biotransformation [1] | Bacterial Biotransformation [2] | Bacterial Biotransformation [3] | Bacterial Biotransformation [4] | Bacterial Biotransformation [5] | Bacterial Biotransformation [6] | Bacterial Biotransformation [7] | Bacterial Biotransformation [8] | Bacterial Biotransformation [9] | Bacterial Biotransformation [10] | Bacterial Biotransformation [11] | Bacterial Biotransformation [12] | Bacterial Biotransformation [13] | Bacterial Biotransformation [14] | Bacterial Biotransformation [15] | Bacterial Biotransformation [16] | Bacterial Biotransformation [17] | Bacterial Biotransformation [18] | Bacterial Biotransformation [19] | Bacterial Biotransformation [20]
1 | CCN(CC)C(C)CN1c2ccccc2Sc2ccccc21 (stereo not given) [ETHOPROPAZINE] | Compound metabolized | Compound NOT metabolized | Compound NOT metabolized | Compound metabolized | Compound metabolized | Compound metabolized | Compound NOT metabolized | Compound metabolized | Compound metabolized | Compound metabolized | Compound metabolized | Compound metabolized | Compound metabolized | Compound metabolized | Compound metabolized | Compound metabolized | Compound metabolized | Compound metabolized | Compound metabolized | Compound metabolized
2 | Cc1nc(-c2ccc(OCC(C)C)c(C#N)c2)sc1C(=O)O [FEBUXOSTAT] | Compound metabolized | Compound NOT metabolized | Compound metabolized | Compound metabolized | Compound NOT metabolized | Compound metabolized | Compound NOT metabolized | Compound metabolized | Compound metabolized | Compound metabolized | Compound metabolized | Compound NOT metabolized | Compound metabolized | Compound NOT metabolized | Compound metabolized | Compound NOT metabolized | Compound metabolized | Compound metabolized | Compound metabolized | Compound metabolized
3 | CC(C)(C(=O)O)c1ccc(C(O)CCCN2CCC(C(O)(c3ccccc3)c3ccccc3)CC2)cc1 (stereo not given) [FEXOFENADINE] | Compound NOT metabolized | Compound NOT metabolized | Compound NOT metabolized | Compound NOT metabolized | Compound NOT metabolized | Compound NOT metabolized | Compound NOT metabolized | Compound NOT metabolized | Compound NOT metabolized | Compound NOT metabolized | Compound NOT metabolized | Compound NOT metabolized | Compound NOT metabolized | Compound NOT metabolized | Compound metabolized | Compound NOT metabolized | Compound NOT metabolized | Compound NOT metabolized | Compound NOT metabolized | Compound NOT metabolized
4 | OCCN1CCN(CCCN2c3ccccc3Sc3ccc(C(F)(F)F)cc32)CC1 [FLUPHENAZINE] | Compound metabolized | Compound NOT metabolized | Compound metabolized | Compound metabolized | Compound metabolized | Compound metabolized | Compound NOT metabolized | Compound metabolized | Compound metabolized | Compound metabolized | Compound metabolized | Compound metabolized | Compound metabolized | Compound metabolized | Compound metabolized | Compound metabolized | Compound metabolized | Compound metabolized | Compound metabolized | Compound metabolized
5 | COc1ccc2c3c1O[C@H]1C[C@@H](O)C=C[C@@]31CCN(C)C2 [GALANTAMINE] | Compound NOT metabolized | Compound NOT metabolized | Compound NOT metabolized | Compound metabolized | Compound NOT metabolized | Compound NOT metabolized | Compound NOT metabolized | Compound metabolized | Compound NOT metabolized | Compound metabolized | Compound metabolized | Compound NOT metabolized | Compound metabolized | Compound NOT metabolized | Compound NOT metabolized | Compound NOT metabolized | Compound NOT metabolized | Compound NOT metabolized | Compound NOT metabolized | Compound NOT metabolized

The next lines start with the values.

Row | Bacterial Biotransformation [1] | Bacterial Biotransformation [2] | Bacterial Biotransformation [3] | Bacterial Biotransformation [4] | Bacterial Biotransformation [5] | Bacterial Biotransformation [6] | Bacterial Biotransformation [7] | Bacterial Biotransformation [8] | Bacterial Biotransformation [9] | Bacterial Biotransformation [10] | Bacterial Biotransformation [11] | Bacterial Biotransformation [12] | Bacterial Biotransformation [13] | Bacterial Biotransformation [14] | Bacterial Biotransformation [15] | Bacterial Biotransformation [16] | Bacterial Biotransformation [17] | Bacterial Biotransformation [18] | Bacterial Biotransformation [19] | Bacterial Biotransformation [20] | SMILES
6 | Compound metabolized | Compound NOT metabolized | Compound metabolized | Compound metabolized | Compound metabolized | Compound NOT metabolized | Compound metabolized | Compound metabolized | Compound metabolized | Compound metabolized | Compound metabolized | Compound metabolized | Compound metabolized | Compound NOT metabolized | Compound metabolized | Compound metabolized | Compound metabolized | Compound metabolized | Compound metabolized | Compound metabolized | Cc1ccc(S(=O)(=O)NC(=O)NN2CC3CCCC3C2)cc1 (stereo not given) [GLICLAZIDE]
7 | Compound metabolized | Compound NOT metabolized | Compound metabolized | Compound NOT metabolized | Compound metabolized | Compound metabolized | Compound metabolized | Compound NOT metabolized | Compound metabolized | Compound metabolized | Compound metabolized | Compound metabolized | Compound metabolized | Compound metabolized | Compound metabolized | Compound metabolized | Compound metabolized | Compound metabolized | Compound metabolized | Compound metabolized | COC1=CC(=O)C[C@@H](C)[C@]12Oc1c(Cl)c(OC)cc(OC)c1C2=O [GRISEOFULVIN]
8 | Compound NOT metabolized | Compound metabolized | Compound metabolized | Compound NOT metabolized | Compound NOT metabolized | Compound NOT metabolized | Compound metabolized | Compound NOT metabolized | Compound NOT metabolized | Compound NOT metabolized | Compound NOT metabolized | Compound NOT metabolized | Compound NOT metabolized | Compound NOT metabolized | Compound metabolized | Compound NOT metabolized | Compound NOT metabolized | Compound NOT metabolized | Compound NOT metabolized | Compound NOT metabolized | N#Cc1ccc(C(c2ccc(C#N)cc2)n2cncn2)cc1 [LETROZOLE]
